Data on 1 compound can be found in patent US20260115170A1, “Method of Ameliorating a Symptom or a Disease in a Human Caused by Fungus” (ISHIHARA SANGYO KAISHA, LTD., priority 2020, published 2026).

By inhibition is commonly meant the percentage by which the read-out fell short of the control. Read a high inhibition as strong suppression. Usually MIC stands for the least concentration at which growth counts as inhibited.

Assay [1] deals with Candida albicans (TIMM1768 Strain). The assay is described as follows: Test Example 1-1 antimicrobial activity test, colony formation. It is filed as cell-based. As to conditions: at 50 ppm, Sabouraud medium, 37° C. for 48 hours. Here is the method:
(§1) Test Microbial Strain: Candida albicans (TIMM1768 Strain) Test method: The Candida microbe cultured in an YPD liquid medium at 37° C. for 20 hours was recovered by centrifugation (3000 rpm, 5 minutes), washed twice with physiological saline, and then suspended in physiological saline, and a microbial liquid was prepared in such a way as to provide 2×10^3 cells/mL. 100 μL of the microbial liquid was applied to a Sabouraud medium to which the test compound dissolved in DMSO was added to have a predetermined concentration. After culturing at 37° C. for 48 hours, the presence or absence of colony formation was investigated.

The test system of assay [2] is Candida glabrata (TIMM6054 Strain). The assay is described as follows: Test Example 1-2 antimicrobial activity test, colony formation. It is filed as cell-based. As to conditions: at 200 ppm, YPD medium, 37° C. for 48 hours. The protocol:
as §1, with “glabrata (TIMM6054” for “albicans (TIMM1768”, “an YPD” for “a Sabouraud”

Assay [3] has as its system Cryptococcus neoformans (TIMM1316 Strain). The assay is described as follows: Test Example 1-3 antimicrobial activity test, colony formation. It is filed as cell-based. The conditions noted are these: at 20 ppm, Sabouraud medium, 37° C. for 48 hours. Here is the method: as §1, with “Cryptococcus neoformans (TIMM1316” for “Candida albicans (TIMM1768”, “Cryptococcus” for “Candida”

In assay [4] the test system is Malassezia Nana (CBS95574). The assay is described as follows: Test Example 1-4 antimicrobial activity test, colony formation inhibition rate after 5 minutes contact. As to conditions: contact 5 minutes at 30° C., culturing 5 days. It is filed as cell-based. Here is the method:
Test Microbial Strain: Malassezia Nana (CBS95574)
(§2) The Malassezia microbe cultured at 32° C. for 20 hours in a Sabouraud liquid medium containing Tween80 (polyoxyethylene sorbitan monooleate: manufactured by Kanto Chemical Co., Inc.) (0.05% (v/v)) was recovered by centrifugation (3000 rpm, 5 minutes), washed twice with physiological saline, and then suspended in 10 mL of physiological saline, the resulting suspension was allowed to stand for 15 minutes, and then the supernatant was recovered. […] 100 μL of the microbial liquid resulting from the resuspension was applied to a Sabouraud medium containing Tween80 (0.05% (v/v)) and subjected to culturing at 30° C. for 5 days, then the number of colonies formed there (number of colonies formed in the inventive plot) and the number of colonies in a solvent to which the test compound was not added (the number of colonies formed in the non-agent treated plot) were measured, and the colony formation inhibition rate (%) was determined according to the following expression.

In assay [5] the test system is Malassezia pachydermatis (TIMM10024). Description: Test Example 1-5 antimicrobial activity test, colony formation inhibition rate after 5 minutes contact. In kind it is cell-based. The conditions noted are these: contact 5 minutes at 30° C., culturing 5 days. The protocol:
Test Microbial Strain: Malassezia pachydermatis (TIMM10024)
as §2, with “ml” for “mL”, “in” for “according to”, “same manner as in Test Example 1-4.” for “following expression.”

In assay [6] the test system is A. Niger (TIMM4968 Strain). The assay is described as follows: Test Example 1-6 antimicrobial activity test, minimum inhibitory concentration. It is filed as cell-based. As to conditions: Aspergillus niger, Sabouraud medium, 28° C. for 48 hours. Here is the method:
(§3) Test Microbial Strains: Aspergillus fumigatus (TIMM0063 Strain), and A. Niger (TIMM4968 Strain) Test method: The Aspergillus microbe was cultured in a PDA medium at 27° C. for 3 days, then spores were collected in physiological saline containing Tween80 (polyoxyethylene sorbitan monooleate: manufactured by Kanto Chemical Co., Inc.) (0.05% (v/v)), and this was filtered through a cell strainer (+40 μm). The spores were recovered from the filtrate by centrifugation (3500 rpm, 5 minutes) and washed twice with physiological saline, and then a spore suspension was prepared (1×10^7 spores/mL). 10 μL of the spore suspension was inoculated into a Sabouraud medium to which compound No. 1 dissolved in DMSO was added to have a predetermined concentration. After culturing at 28° C. for 48 hours, the presence or absence of microbial growth was investigated, and the minimum inhibitory concentration was determined.

Assay [7] deals with Aspergillus fumigatus (TIMM0063 Strain). The assay is described as above. The conditions noted are these: Sabouraud medium, 28° C. for 48 hours. It is filed as cell-based. Here is the method:
as §3

Assay [8] deals with Arthroderma vanbreuseghemii (TIMM2789). Description: Test Example 1-7 antimicrobial activity test, minimum inhibitory concentration. In kind it is cell-based. The conditions noted are these: Trichophyton mentagrophytes, Sabouraud medium, 28° C. for 72 hours. Here is the method:
(§4) Test Microbial Strains: Trichophyton rubrum (CBS118892 Strain), T. interdegitale (TIMM20065 Strain), Microsporum canis (TIMM20080 Strain), and Arthroderma vanbreuseghemii (TIMM2789)
(§5) Each microbial strain was cultured in a Sabouraud medium containing 500 μg/mL of cycloheximide and 50 μg/mL of chloramphenicol at 28° C. for 8 days, then spores were collected in physiological saline containing Tween80 (polyoxyethylene sorbitan monooleate: manufactured by Kanto Chemical Co., Inc.) (0.05% (v/v)), and this was filtered through a cell strainer (φ40 μm). The spores were recovered from the filtrate by centrifugation (3500 rpm, 5 minutes) and washed twice with physiological saline, and then a spore suspension was prepared (1×10^7 spores/mL). 10 μL of the spore suspension was inoculated into a Sabouraud medium to which compound No. 1 dissolved in DMSO was added to have a predetermined concentration. After culturing at 28° C. for 72 hours, the presence or absence of microbial growth was investigated, and the minimum inhibitory concentration was determined. As a result, the minimum inhibitory concentration of compound No. 1 for each of the four microbial strains was 10 ppm.

The subject of assay [9] is Microsporum canis (TIMM20080 Strain). Described as above. In kind it is cell-based. As to conditions: Sabouraud medium, 28° C. for 72 hours. The protocol: as §4, §5
Assay [10] deals with Trichophyton rubrum (CBS118892 Strain). Described as above. As to conditions: Sabouraud medium, 28° C. for 72 hours. It is filed as cell-based. Here is the method: as §4, §5
The test system of assay [11] is T. interdegitale (TIMM20065 Strain). Described as above. As to conditions: Trichophyton, Sabouraud medium, 28° C. for 72 hours. It is filed as cell-based, Trichophyton interdegitale. Here is the method:
as §4, §5

Converted amounts (≈) assume the structure as drawn.

Turning to `Cc1ccc(-c2nc(C#N)[nH]c2Cl)cc1` [Compound No. 1, 5-Chloro-4-(4-methylphenyl)-1H-imidazole-2-carbonitrile], the colony formation result is “completely inhibited colony formation” in assay [1], “completely suppressed colony formation” in [2] and “completely suppressed colony formation” in [3]. Besides, the values for the inhibition at 100 ppm in assay [4] (at 100 ppm) and in [5] (at 100 ppm) were 98.5% and 98.1%, respectively. Further, the inhibition at 200 ppm stood at 99.9% in [4] (at 200 ppm) and 100% in assay [5] (at 200 ppm). The MIC in assay [6] amounted to 100 µg/mL (≈ 459 µM); in assay [7], 100 µg/mL (≈ 459 µM); in assay [8], 10 µg/mL (≈ 45.9 µM); in assay [9], 10 µg/mL (≈ 45.9 µM); in [10] it was 10 µg/mL (≈ 45.9 µM); in [11] it was 10 µg/mL (≈ 45.9 µM).
